22 compounds from patent publication US20120129870A1, “PIPERAZINYL DERIVATIVES USEFUL AS MODULATORS OF THE NEUROPEPTIDE Y2 RECEPTOR” (priority 2007, published 2012) can be followed below.

Test [1] concerns the target T1, NPY Y2 receptor (Homo sapiens, UniProt P49146).
T1 sequence (P49146 1-381): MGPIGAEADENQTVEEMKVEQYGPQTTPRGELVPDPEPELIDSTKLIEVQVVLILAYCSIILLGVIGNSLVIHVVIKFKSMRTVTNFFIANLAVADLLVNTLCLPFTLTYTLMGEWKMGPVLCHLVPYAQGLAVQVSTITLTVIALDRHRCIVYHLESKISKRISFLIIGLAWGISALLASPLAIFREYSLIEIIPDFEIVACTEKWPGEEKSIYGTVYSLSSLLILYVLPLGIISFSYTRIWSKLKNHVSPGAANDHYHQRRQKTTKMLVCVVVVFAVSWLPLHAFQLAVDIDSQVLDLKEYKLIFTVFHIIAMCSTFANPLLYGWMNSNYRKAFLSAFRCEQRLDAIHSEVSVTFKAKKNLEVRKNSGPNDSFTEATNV
Nature of the test: Neuropeptide Y2 pKB assay (FLIPR, KAN-Ts cells stably expressing chimeric G proteins). Conditions: apparent pKB, modified Cheng-Prusoff correction. The test is classed as cell-based. On the procedure: The assay was performed using the fluorimetric imaging plate reader (FLIPR) format as described in Dautzenberg, F. M., Biochemical Pharmacology 2005, 69, 1493.
KAN-Ts cells stably expressing chimeric G proteins were seeded at a density of 100,000 cells into poly-d-lysine coated 384-well blackwall, clear-bottom microtiter plates (Corning, N.Y.). One day later, the medium was removed and 50 μl loading medium DMEM high glucose, without serum, supplemented with 10 mM HEPES-acid, 0.1% BSA, 5 mM probenecid and 2 μM Fluo-3AM was added. Cells were loaded for 1 h at 37° C., washed twice with 50 μl assay buffer (5 mM HEPES-acid, 140 mM NaCl, 1 mM MgCl2, 5 mM KCl, 10 mM glucose) and then 30 μl assay buffer was added. Cells were further pre-incubated at room temperature before adding agonists or agonists plus antagonists in 20 μl assay buffer and then measured on a T-channel fluorometric imaging plate reader (FLIPR, Molecular Devices, Sunnyvale, Calif.). Antagonistic potency values were converted to apparent pKB values using a modified Cheng-Prusoff correction. Apparent pKB was calculated as pKB=−log IC50/1+[conc agonist/EC50].

Test [2] deals with T1, NPY Y2 receptor. Nature of the test: Neuropeptide Y2 radioligand binding assay ([125I]PYY, KAN-Ts membranes). Also noted: endogenous in cells; host or cells: KAN-Ts cells (membrane preparation). As to conditions: KAN-Ts membranes endogenously expressing Y2, [125I]PYY (80 pM), 1 h at rt. The gist of the method:
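Membranes from KAN-Ts cells with endogenous Y2 receptors, incubated with 80 pM [125I]PYY ± compound for 1 h at rt in HEPES/NaCl/CaCl2/MgSO4 buffer, then filtered and counted. Nonspecific binding defined with […]. IC50 from sigmoidal fit; Ki = IC50/(1+C/KD).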

As usually defined, the IC50 is the concentration that gives 50% inhibition. A higher IC50 goes with a need for much substance. `CCC(CC)C(=O)Nc1ccc(N2CCN(C(c3ccccc3)c3ccccn3)CC2)c(F)c1` (centres unmarked) [Compound 33, 2-Ethyl-N-{3-fluoro-4-[4-(phenyl-pyridin-2-yl-methyl)-piperazin-1-yl]-phenyl}-butyramide]: on NPY Y2 receptor [1], the Kb is 0.02 µM. For the same compound, the IC50 on NPY Y2 receptor [2] amounted to 0.018 µM.

For `CCC(CC)C(=O)Nc1ccc(N2CCN(C(c3ccccc3)c3nccs3)CC2)c(F)c1` (centres unmarked) [Compound 39, 2-Ethyl-N-{3-fluoro-4-[4-(phenyl-thiazol-2-yl-methyl)-piperazin-1-yl]-phenyl}-butyramide], the Kb at NPY Y2 receptor [1] was 0.0631 µM. For the same compound, the 50% inhibitory concentration (IC50) on NPY Y2 receptor [2] came out at 0.028 µM.

Turning to `CCC(CC)C(=O)Nc1ccc(N2CCN(C(c3ccccc3)c3ncccn3)CC2)c(F)c1` (centres unmarked) [Compound 40, 2-Ethyl-N-{3-fluoro-4-[4-(phenyl-pyrimidin-2-yl-methyl)-piperazin-1-yl]-phenyl}-butyramide], the Kb at NPY Y2 receptor [1] is 0.1 µM. This compound also came in with an IC50 at NPY Y2 receptor [2] of 0.052 µM.

As for `O=C(Nc1ccc(N2CCN(C(c3ccccc3)c3ncco3)CC2)c(F)c1)C1CCCC1` (centres unmarked) [Compound 54, Cyclopentanecarboxylic acid {3-fluoro-4-[4-(oxazol-2-yl-phenyl-methyl)-piperazin-1-yl]-phenyl}amide], the Kb on NPY Y2 receptor [1] is 10 µM. Moreover, the IC50 at NPY Y2 receptor [2] amounted to 0.095 µM.

For `CCC(CC)C(=O)Nc1ccc(N2CCN(C(c3ccccc3)c3noc(C(C)C)n3)CC2)c(F)c1` (centres unmarked) [Compound 82, 2-Ethyl-N-(3-fluoro-4-{4-[(5-isopropyl-[1,2,4]-oxadiazol-3-yl)-phenyl-methyl]-piperazin-1-yl}-phenyl)-butyramide], on NPY Y2 receptor [1], the Kb is 0.0501 µM. This compound also had an IC50 at NPY Y2 receptor [2] of 0.022 µM.

As for `CCC(CC)C(=O)Nc1ccc(N2CCN(C(c3ccccc3)c3ncco3)CC2)c(C)c1` (centres unmarked) [Compound 85, 2-Ethyl-N-{3-methyl-4-[4-(oxazol-2-yl-phenyl-methyl)-piperazin-1-yl]-phenyl}-butyramide], the Kb on NPY Y2 receptor [1] is 0.126 µM. This compound displayed an IC50 on NPY Y2 receptor [2] of 0.075 µM.

For the compound `N#Cc1cc(NC(=O)[C@@H]2CCOC2)ccc1N1CCN(C(c2ccccc2)c2ncco2)CC1` (some centres unmarked) [Compound 90, Tetrahydro-furan-3-carboxylic acid {3-cyano-4-[4-(oxazol-2-yl-phenyl-methyl)-piperazin-1-yl]-phenyl}-amide], on NPY Y2 receptor [1], the Kb was 0.0316 µM. The IC50 at NPY Y2 receptor [2] was found to be 0.038 µM.

Consider `CC(CC(F)(F)F)C(=O)Nc1ccc(N2CCN(C(c3ccccc3)c3ncco3)CC2)c(C#N)c1` (centres unmarked) [Compound 110, N-{3-Cyano-4-[4-(oxazol-2-yl-phenyl-methyl)-piperazin-1-yl]-phenyl}-4,4,4-trifluoro-2-methyl-butyramide], for which the Kb on NPY Y2 receptor [1] was 0.1 µM. The IC50 at NPY Y2 receptor [2] was found to be 0.029 µM.

As for `Cc1noc(C)c1C(=O)Nc1ccc(N2CCN(C(c3ccccc3)c3ncco3)CC2)c(F)c1` (centres unmarked) [Compound 113, 3,5-Dimethyl-isoxazole-4-carboxylic acid {3-fluoro-4-[4-(oxazol-2-yl-phenyl-methyl)-piperazin-1-yl]-phenyl}-amide], the Kb at NPY Y2 receptor [1] is 0.2 µM. This compound registered an IC50 at NPY Y2 receptor [2] of 0.14 µM.

For `CCC(CC)C(=O)Nc1ccc(N2CCN(C(c3cccc(F)c3)c3ncco3)CC2)c(C#N)c1` (centres unmarked) [Compound 131, N-(3-Cyano-4-{4-[(3-fluoro-phenyl)-oxazol-2-yl-methyl]-piperazin-1-yl}-phenyl)-2-ethyl-butyramide], at NPY Y2 receptor [1], the Kb was 0.0126 µM. On NPY Y2 receptor [2], this compound registered an IC50 of 0.007 µM.

As for `CCC(CC)C(=O)Nc1ccc(N2CCN(C(c3cccc(F)c3)c3ncco3)CC2)c(F)c1` (centres unmarked) [Compound 132, 2-Ethyl-N-(3-fluoro-4-{4-[(3-fluoro-phenyl)-oxazol-2-yl-methyl]-piperazin-1-yl}-phenyl)-butyramide], the Kb at NPY Y2 receptor [1] was 0.0631 µM. The compound also gave an IC50 at NPY Y2 receptor [2] of 0.045 µM.

With `CCC(CC)C(=O)Nc1ccc(N2CCN(C(c3ccc(F)cc3)c3ncco3)CC2)c(C#N)c1` (centres unmarked) [Compound 139, N-(3-Cyano-4-{4-[(4-fluoro-phenyl)-oxazol-2-yl-methyl]-piperazin-1-yl}-phenyl)-2-ethyl-butyramide], the Kb at NPY Y2 receptor [1] is 0.0251 µM. The compound also showed an IC50 at NPY Y2 receptor [2] of 0.021 µM.

In the case of `CCC(CC)C(=O)Nc1ccc(N2CCN(C(c3ccc(OC)cc3)c3ncco3)CC2)c(C#N)c1` (centres unmarked) [Compound 141, N-(3-Cyano-4-{4-[(4-methoxy-phenyl)-oxazol-2-yl-methyl]-piperazin-1-yl}-phenyl)-2-ethyl-butyramide], the Kb at NPY Y2 receptor [1] was 0.0501 µM. For the same compound, the IC50 on NPY Y2 receptor [2] stood at 0.029 µM.

With `CCC(CC)C(=O)Nc1ccc(N2CCN(C(c3ccc(C#N)cc3)c3ncco3)CC2)c(C#N)c1` (centres unmarked) [Compound 145, N-(3-Cyano-4-{4-[(4-cyano-phenyl)-oxazol-2-yl-methyl]-piperazin-1-yl}-phenyl)-2-ethyl-butyramide], the Kb on NPY Y2 receptor [1] is 0.0631 µM. The IC50 on NPY Y2 receptor [2] came to 0.033 µM.

For `CCc1nnc(C(c2ccccc2)N2CCN(c3ccc(NC(=O)C(CC)CC)cc3F)CC2)o1` (centres unmarked) [Compound 153, 2-Ethyl-N-(4-{4-[(5-ethyl-[1,3,4]-oxadiazol-2-yl)-phenyl-methyl]-piperazin-1-yl}-3-fluoro-phenyl)-butyramide], the Kb on NPY Y2 receptor [1] was 0.0398 µM. On NPY Y2 receptor [2], the half-inhibitory concentration (IC50) turned out to be 0.039 µM.

As for `CCC(CC)C(=O)Nc1ccc(N2CCN(C(c3ccccc3)c3nnc(C(C)C)o3)CC2)c(F)c1` (centres unmarked) [Compound 160, 2-Ethyl-N-(3-fluoro-4-{4-[(5-isopropyl-[1,3,4]-oxadiazol-2-yl)-phenyl-methyl]-piperazin-1-yl}-phenyl)-butyramide], on NPY Y2 receptor [1], the Kb is 0.1 µM. The IC50 on NPY Y2 receptor [2] was found to be 0.043 µM.

As to `CCC(CC)C(=O)Nc1ccc(N2CCN(C(c3ccccc3)c3nnc(C(CC)CC)o3)CC2)c(F)c1` (centres unmarked) [Compound 163, 2-Ethyl-N-[4-(4-{[5-(1-ethyl-propyl)-[1,3,4]oxadiazol-2-yl]-phenyl-methyl}-piperazin-1-yl)-3-fluoro-phenyl]-butyramide], the Kb on NPY Y2 receptor [1] is 0.1 µM. This compound showed an IC50 at NPY Y2 receptor [2] of 0.02 µM.

On to `CCC(CC)C(=O)Nc1ccc(N2CCN(C(c3ccccc3)c3nc4ccccc4o3)CC2)c(F)c1` (centres unmarked) [Compound 165, N-{4-[4-(Benzooxazol-2-yl-phenyl-methyl)-piperazin-1-yl]-3-fluoro-phenyl}-2-ethyl-butyramide], for which the Kb on NPY Y2 receptor [1] is 0.1 µM. For the same compound, on NPY Y2 receptor [2], the IC50 was 0.018 µM.

For `CCC(CC)C(=O)Nc1ccc(N2CCN(C(c3ccccc3)c3nc4ccccc4o3)CC2)c(C#N)c1` (centres unmarked) [Compound 166, N-{4-[4-(Benzooxazol-2-yl-phenyl-methyl)-piperazin-1-yl]-3-cyano-phenyl}-2-ethyl-butyramide], the Kb at NPY Y2 receptor [1] was 0.0794 µM. This compound had an IC50 at NPY Y2 receptor [2] of 0.007 µM.

`CCC(CC)C(=O)Nc1ccc(N2CCN(C(c3ccccc3)c3nc4ccccc4s3)CC2)c(F)c1` (centres unmarked) [Compound 168, N-{4-[4-(Benzothiazol-2-yl-phenyl-methyl)-piperazin-1-yl]-3-fluoro-phenyl}-2-ethyl-butyramide]: the Kb on NPY Y2 receptor [1] was 0.0708 µM. Also, at NPY Y2 receptor [2], the IC50 turned out to be 0.058 µM.

For the compound `CCC(CC)C(=O)Nc1ccc(N2CCN(C(c3ccccc3)c3nc4ccccc4s3)CC2)c(C#N)c1` (centres unmarked) [Compound 169, N-{4-[4-(Benzothiazol-2-yl-phenyl-methyl)-piperazin-1-yl]-3-cyano-phenyl}-2-ethyl-butyramide], the Kb at NPY Y2 receptor [1] is 0.0501 µM. Also, the IC50 on NPY Y2 receptor [2] was 0.039 µM.

On to `CCC(CC)C(=O)Nc1ccc(N2CCN(C(c3ccccc3)c3cc(C)no3)CC2)c(F)c1` (centres unmarked) [Compound 230, 2-Ethyl-N-(3-fluoro-4-{4-[(3-methyl-isoxazol-5-yl)-phenyl-methyl]-piperazin-1-yl}-phenyl)-butyramide], for which the Kb at NPY Y2 receptor [1] is 0.0251 µM. Further, on NPY Y2 receptor [2], the IC50 stood at 0.012 µM.
